Experimental data as given in patent publication US20240042046A1, “METHODS AND COMPOUNDS FOR MODULATING HUNTINGTON'S DISEASE” (Design Therapeutics, Inc., priority 2022, published 2024).

Tests used:
[1] = system: human HTT mRNA, SNP rs362331 C allele, GM09197 fibroblasts; experiment: Screening of HD molecules in GM09197 fibroblasts, allele-specific HTT mRNA by RT-PCR, C allele; assay type: cell-based; conditions: for GM 09197 E min 48 Hr C Allele (%): Emin = lowest % HTT observed within compound concentration 0.5 nM to 1000 nM; for IC50: Homo sapiens, Fibroblast, 48-hour incubation, C allele HTT mRNA normalized to GAPDH, relative to vehicle
Description: (§1) Molecular Biology Toolkit: • qPCR primer probe sets: • RNA input normalization was assessed utilizing human glyceraldehyde 3-phosphate dehydrogenase (hGAPDH) TaqMan assay (ThermoFisher cat #4351370) or Human Cyclophillin ([…]) TaqMan assay (ThermoFisher cat #4351372) • Total HTT detection was assessed utilizing human Htt TaqMan assay (ThermoFisher cat #4331182) • Allele-specific detection of human HTT expression in HD cells containing the SNP rs362331C/T (Exon 50): for each assay, allele-specific probes to detect the SNP variant contained locked nucleic acid bases to improve allele discrimination, as compared to unmodified DNA probes.
(§2) • qPCR was performed using Agpath ID one-step reverse transcriptase polymerase chain reaction (RT-PCR) reagent
(§3) Screening of HD molecules methods: GM09197 and/or GM04022 fibroblasts were cultured in T175 flasks incubated at 37° C. and 5% CO2. Once confluency was reached, the media was removed, the cells were washed with 1×PBS, and cells were dissociated using TrypLE™ Express Enzyme. Media was added to the enzyme and collected into a 15-mL conical tube and centrifuged at 500×g for 5 minutes to pellet the cells. Media and enzyme were aspirated using a serological pipette. Cells were resuspended in fresh media and counted using a Countess 3 Automated Cell Counter. Cells were plated at a density of 15,000 cells/well in a tissue culture-treated polystyrene 96-well dish and incubated at 37° C. and 5% CO2 overnight. The next day, media was removed using an 8-channel aspirator. 200 μL media/well are added back into the plate. The molecules are formulated to 1 mM and are dispensed using a Multidrop™ Pico 8 Digital Dispenser. After a 48-hour incubation with compounds, media was removed from plates, cells were washed with 1×PBS, and cells were lysed in 40 μL per well guanidinium thiocyanate buffer. RNA was isolated and purified in […] glass fiber column plates using chaotropic salts. Human mtHTT, wtHTT, and GAPDH mRNA were measured via RT-PCR using the ThermoFisher QuantStudio™ 7 Flex System in 384-well format. Results of HTT levels were normalized to GAPDH mRNA levels. Normalized HTT mRNA levels were expressed relative to vehicle-treated samples to assess fold change after molecule treatment.
(§4) Emin for each compound is the lowest % HTT concentration observed within a compound concentration of 0.5 nM to 1000 nM.

[2] = system: human HTT mRNA, SNP rs362331 T allele, GM09197 fibroblasts; experiment: Screening of HD molecules in GM09197 fibroblasts, allele-specific HTT mRNA by RT-PCR, T allele; assay type: cell-based; conditions: for Gm09197 Emin 48 hr T Allele (%): Emin = lowest % HTT observed within compound concentration 0.5 nM to 1000 nM; for IC50: Homo sapiens, Fibroblast, 48-hour incubation, T allele HTT mRNA normalized to GAPDH, relative to vehicle
Description: as §1, §2, §3, §4

Row | SMILES | GM 09197 E min 48 Hr C Allele (%) [1] | Gm09197 Emin 48 hr T Allele (%) [2] | IC50 [1] [µM] | IC50 [2] [µM]
1 | Cc1sc2c(c1C)C(c1ccc(Cl)cc1)=N[C@@H](CC(=O)Nc1ccc(OCCOCCOCCOCCOCCOCCOCCOCCOCCOCCOCCOCCOCCOCCOCCOCCNC(=O)c3cc(NC(=O)c4nc(NC(=O)c5cc(NC(=O)[C@@H](N)CCNC(=O)c6nc(NC(=O)CCNC(=O)c7cc(NC(=O)c8nccn8C)cn7C)cn6C)cn5C)cn4C)cn3C)cc1)c1nnc(C)n1-2 [Compound A-38] | A (A>90%) | A (A>90%) | – | –
2 | CCS(=O)(=O)Nc1ccc(Oc2ccc(F)cc2F)c(-c2cn(C)c(=O)c3[nH]c(C(=O)Nc4ccc(OCCOCCOCCOCCOCCOCCOCCOCCOCCNC(=O)c5cc(NC(=O)c6nc(NC(=O)c7cc(NC(=O)[C@@H](N)CCNC(=O)c8nc(NC(=O)CCNC(=O)c9cc(NC(=O)c%10nccn%10C)cn9C)cn8C)cn7C)cn6C)cn5C)cc4)cc23)c1 [Compound A-39] | B (B is 90% to 80%) | B (B is 90% to 80%) | – | –
3 | CCS(=O)(=O)Nc1ccc(Oc2ccc(F)cc2F)c(-c2cn(C)c(=O)c3[nH]c(C(=O)Nc4ccc(OCCOCCOCCOCCOCCOCCOCCOCCOCCOCCOCCOCCOCCOCCOCCOCCNC(=O)c5cc(NC(=O)c6nc(NC(=O)c7cc(NC(=O)[C@@H](N)CCNC(=O)c8nc(NC(=O)CCNC(=O)c9cc(NC(=O)c%10nccn%10C)cn9C)cn8C)cn7C)cn6C)cn5C)cc4)cc23)c1 [Compound A-40] | A (A>90%) | A (A>90%) | – | –
4 | Cc1sc2c(c1C)C(c1ccc(Cl)cc1)=N[C@H](CC(=O)Nc1ccc(OCCOCCOCCOCCOCCOCCOCCOCCOCCOCCOCCOCCOCCOCCOCCOCCNC(=O)CCNC(=O)c3nc(NC(=O)c4cc(NC(=O)CCNC(=O)c5nc(NC(=O)CCCNC(=O)c6cc(NC(=O)c7nc(NC(=O)CCNC(=O)c8cc(NC(=O)c9nccn9C)cn8C)cn7C)cn6C)cn5C)cn4C)cn3C)cc1)c1nnc(C)n1-2 [Compound A-45] | C (C<80%) | C (C<80%) | – | –
5 | Cn1cc(NC(=O)c2nc(NC(=O)CCNC(=O)c3cc(NC(=O)c4nccn4C)cn3C)cn2C)cc1C(=O)NCCCC(=O)Nc1cn(C)c(C(=O)NCCC(=O)Nc2cc(C(=O)Nc3cn(C)c(C(=O)NCCC(=O)NCCOCCOCCOCCOCCN4C[C@H](Nc5cnn(C)c(=O)c5Br)C[C@H](c5ccccc5)C4)n3)n(C)c2)n1 [Compound A-47] | C (C<80%) | C (C<80%) | > 1 | > 1
6 | Cn1cc(NC(=O)c2nc(NC(=O)CCNC(=O)c3cc(NC(=O)c4nccn4C)cn3C)cn2C)cc1C(=O)NCCCC(=O)Nc1cn(C)c(C(=O)NCCC(=O)Nc2cc(C(=O)Nc3cn(C)c(C(=O)NCCC(=O)NCCOCCOCCOCCOCCOCCOCCOCCOCCN4C[C@H](Nc5cnn(C)c(=O)c5Br)C[C@H](c5ccccc5)C4)n3)n(C)c2)n1 [Compound A-48] | A (A>90%) | A (A>90%) | – | –
7 | Cn1cc(NC(=O)c2nc(NC(=O)CCNC(=O)c3cc(NC(=O)c4nccn4C)cn3C)cn2C)cc1C(=O)NCCCC(=O)Nc1cn(C)c(C(=O)NCCC(=O)Nc2cc(C(=O)Nc3cn(C)c(C(=O)NCCC(=O)NCCOCCOCCOCCOCCOCCOCCOCCOCCOCCOCCOCCOCCOCCOCCOCCN4C[C@H](Nc5cnn(C)c(=O)c5Br)C[C@H](c5ccccc5)C4)n3)n(C)c2)n1 [Compound A-49] | A (A>90%) | A (A>90%) | – | –
8 | Cc1noc(C)c1-c1ccc2c(c1)nc(CCc1ccc(OCCOCCOCCOCCOCCNC(=O)CCNC(=O)c3nc(NC(=O)c4cc(NC(=O)CCNC(=O)c5nc(NC(=O)CCCNC(=O)c6cc(NC(=O)c7nc(NC(=O)CCNC(=O)c8cc(NC(=O)c9nccn9C)cn8C)cn7C)cn6C)cn5C)cn4C)cn3C)c(Cl)c1)n2C[C@H](C)N1CCOCC1 [Compound A-52] | C (C<80%) | B (B is 90% to 80%) | > 1 | > 1
9 | Cc1noc(C)c1-c1ccc2c(c1)nc(CCc1ccc(OCCOCCOCCOCCOCCOCCOCCOCCOCCNC(=O)CCNC(=O)c3nc(NC(=O)c4cc(NC(=O)CCNC(=O)c5nc(NC(=O)CCCNC(=O)c6cc(NC(=O)c7nc(NC(=O)CCNC(=O)c8cc(NC(=O)c9nccn9C)cn8C)cn7C)cn6C)cn5C)cn4C)cn3C)c(Cl)c1)n2C[C@H](C)N1CCOCC1 [Compound A-53] | A (A>90%) | B (B is 90% to 80%) | – | –
10 | Cc1noc(C)c1-c1ccc2c(c1)nc(CCc1ccc(OCCOCCOCCOCCOCCOCCOCCOCCOCCOCCOCCOCCOCCOCCOCCOCCNC(=O)CCNC(=O)c3nc(NC(=O)c4cc(NC(=O)CCNC(=O)c5nc(NC(=O)CCCNC(=O)c6cc(NC(=O)c7nc(NC(=O)CCNC(=O)c8cc(NC(=O)c9nccn9C)cn8C)cn7C)cn6C)cn5C)cn4C)cn3C)c(Cl)c1)n2C[C@H](C)N1CCOCC1 [Compound A-54] | B (B is 90% to 80%) | B (B is 90% to 80%) | – | –
11 | CCNC(=O)c1cc2c(-c3cc(S(C)(=O)=O)ccc3Oc3ccc(OCCOCCOCCOCCOCCNC(=O)CCNC(=O)c4nc(NC(=O)c5cc(NC(=O)CCNC(=O)c6nc(NC(=O)CCCNC(=O)c7cc(NC(=O)c8nc(NC(=O)CCNC(=O)c9cc(NC(=O)c%10nccn%10C)cn9C)cn8C)cn7C)cn6C)cn5C)cn4C)cc3F)cn(C)c(=O)c2[nH]1 [Compound A-55] | A (A>90%) | A (A>90%) | – | –
12 | CC(=O)N1c2ccc(-c3ccn(CCOCCOCCOCCOCCOCCOCCOCCOCCOCCOCCOCCOCCOCCOCCOCCNC(=O)CCNC(=O)c4nc(NC(=O)c5cc(NC(=O)CCNC(=O)c6nc(NC(=O)CCCNC(=O)c7cc(NC(=O)c8nc(NC(=O)CCNC(=O)c9cc(NC(=O)c%10nccn%10C)cn9C)cn8C)cn7C)cn6C)cn5C)cn4C)n3)cc2[C@H](Nc2ccc(C#N)cc2)C[C@@H]1C [Compound A-56] | C (C<80%) | C (C<80%) | – | –
13 | CC(=O)N1c2ccc(-c3ccn(-c4ccc(OCCOCCOCCOCCOCCOCCOCCOCCOCCOCCOCCOCCOCCOCCOCCOCCNC(=O)CCNC(=O)c5nc(NC(=O)c6cc(NC(=O)CCNC(=O)c7nc(NC(=O)CCCNC(=O)c8cc(NC(=O)c9nc(NC(=O)CCNC(=O)c%10cc(NC(=O)c%11nccn%11C)cn%10C)cn9C)cn8C)cn7C)cn6C)cn5C)cc4)n3)cc2[C@H](Nc2ccc(C#N)cc2)C[C@@H]1C [Compound A-58] | B (B is 90% to 80%) | B (B is 90% to 80%) | – | –
14 | CC(=O)N1c2ccc(-c3ccn(-c4ccc(OCCOCCOCCOCCOCCOCCOCCOCCOCCNC(=O)CCNC(=O)c5nc(NC(=O)c6cc(NC(=O)CCNC(=O)c7nc(NC(=O)CCCNC(=O)c8cc(NC(=O)c9nc(NC(=O)CCNC(=O)c%10cc(NC(=O)c%11nccn%11C)cn%10C)cn9C)cn8C)cn7C)cn6C)cn5C)cc4)n3)cc2[C@H](Nc2ccc(C#N)cc2)C[C@@H]1C [Compound A-59] | B (B is 90% to 80%) | B (B is 90% to 80%) | – | –
15 | CCNS(=O)(=O)c1ccc(Oc2ccc(OCCOCCOCCOCCOCCOCCOCCOCCOCCOCCOCCOCCOCCOCCOCCOCCNC(=O)CCNC(=O)c3nc(NC(=O)c4cc(NC(=O)CCNC(=O)c5nc(NC(=O)CCCNC(=O)c6cc(NC(=O)c7nc(NC(=O)CCNC(=O)c8cc(NC(=O)c9nccn9C)cn8C)cn7C)cn6C)cn5C)cn4C)cn3C)cc2F)c(-c2cn(C)c(=O)c3[nH]ccc23)c1 [Compound A-68] | A (A>90%) | C (C<80%) | – | –
16 | CCS(=O)(=O)Nc1ccc(Oc2ccc(F)cc2F)c(-c2cn(C)c(=O)c3[nH]c(C(=O)Nc4ccc(OCCOCCOCCOCCOCCOCCOCCOCCOCCOCCOCCOCCOCCOCCOCCOCCNC(=O)CCNC(=O)c5nc(NC(=O)c6cc(NC(=O)CCNC(=O)c7nc(NC(=O)OCCNC(=O)c8cc(NC(=O)c9nc(NC(=O)CCNC(=O)c%10cc(NC(=O)c%11nccn%11C)cn%10C)cn9C)cn8C)cn7C)cn6C)cn5C)cc4)cc23)c1 [Compound A-72] | B (B is 90% to 80%) | A (A>90%) | – | –
17 | Cc1sc2c(c1C)C(c1ccc(Cl)cc1)=N[C@@H](CC(=O)Nc1ccc(OCCOCCOCCOCCOCCOCCOCCOCCOCCOCCOCCOCCOCCOCCOCCOCCNC(=O)CCNC(=O)c3nc(NC(=O)c4cc(NC(=O)CCNC(=O)c5nc(NC(=O)OCCNC(=O)c6cc(NC(=O)c7nc(NC(=O)CCNC(=O)c8cc(NC(=O)c9nccn9C)cn8C)cn7C)cn6C)cn5C)cn4C)cn3C)cc1)c1nnc(C)n1-2 [Compound A-73] | A (A>90%) | A (A>90%) | – | –
